System: cortex metabolites
Assay: Metabolomic analysis of cortex
Format: in vivo, mice
Experimental: Metabolomic analyses were conducted at Metabolon (Durham, NC, USA) as described previously. For statistical analyses and data display, any missing values were assumed to be below the limits of detection and imputed with the compound minimum (minimum value imputation). An estimate of the FDR (Q value) was calculated to take into account the multiple comparisons that normally occur in metabolomics-based studies, with Q < 0.05 used as an indication of high confidence in a result. The MetaboAnalyst tool was used to generate heat maps.

Structure (SMILES): Cc1ccc(N(/N=C/c2cccc(OC(F)(F)F)c2)C(=O)C(F)(F)F)c(C)c1 [CAD-31]
- monoacylglycerols in brain (AD mice, only significant drug effect): an increase in monoacylglycerols
- Long-chain fatty acids and monoacylglycerols in brain (WT mice): decreased
- acetyl-CoA, ketone bodies, and acyl carnitines in brain (WT mice): increased
- ergothioneine Fold Change (cortex, AD+31/AD, p-value 8.4373e-5): 0.57
- N-acetylalanine Fold Change (cortex, AD+31/AD, p-value 0.0006): 0.84
- glycerate Fold Change (cortex, AD+31/AD, p-value 0.0086): 0.65
- 2-oleoylglycerol (18:1) Fold Change (cortex, AD+31/AD, p-value 0.0105): 1.51
- 1-palmitoylglycerol (16:0) Fold Change (cortex, AD+31/AD, p-value 0.0153): 1.41
- 2-methylcitrate/homocitrate Fold Change (cortex, AD+31/AD, p-value 0.0221): 1.13
- hypoxanthine Fold Change (cortex, AD+31/AD, p-value 0.0231): 0.89
- N-acetylneuraminate Fold Change (cortex, AD+31/AD, p-value 0.0277): 0.85
- 2-palmitoylglycerol (16:0) Fold Change (cortex, AD+31/AD, p-value 0.031): 1.57
- 1-palmitoyl-GPG (16:0)* Fold Change (cortex, AD+31/AD, p-value 0.0317): 1.85
- azelate (nonanedioate) Fold Change (cortex, AD+31/AD, p-value 0.0374): 0.73
- ribose Fold Change (cortex, AD+31/AD, p-value 0.0378): 0.84
- arachidate (20:0) Fold Change (cortex, AD+31/AD, p-value 0.0406): 1.47
- N-delta-acetylornithine Fold Change (cortex, AD+31/AD, p-value 0.0407): 1.32
- 3-sulfo-nervonoyl-galactosylceramide (d18:1/24:1) Fold Change (cortex, AD+31/AD, p-value 0.0443): 1.08
- 1-oleoylglycerol (18:1) Fold Change (cortex, AD+31/AD, p-value 0.0513): 1.46
- 1-stearoyl-GPG (18:0) Fold Change (cortex, AD+31/AD, p-value 0.055): 1.87
- N-acetylglutamate Fold Change (cortex, AD+31/AD, p-value 0.0559): 0.92
- linoleoyl ethanolamide Fold Change (cortex, AD+31/AD, p-value 0.0645): 1.62
- N-acetylglucosaminylasparagine Fold Change (cortex, AD+31/AD, p-value 0.0691): 0.92
- tricosenoate (23:1) Fold Change (cortex, AD+31/AD, p-value 0.0711): 1.54
- 2'-deoxycytidine Fold Change (cortex, AD+31/AD, p-value 0.088): 0.85
- nonadecanoate (19:0) Fold Change (cortex, AD+31/AD, p-value 0.0981): 1.35
- palmitate (16:0) Fold Change (cortex, AD+31/AD, p-value 0.1021): 1.36
- erucate (22:1n9) Fold Change (cortex, AD+31/AD, p-value 0.1047): 1.44
- 5-methylthioadenosine (MTA) Fold Change (cortex, AD+31/AD, p-value 0.1124): 1.12
- stearate (18:0) Fold Change (cortex, AD+31/AD, p-value 0.1164): 1.35
- eicosenoate (20:1) Fold Change (cortex, AD+31/AD, p-value 0.1281): 1.43
- oleate/vaccenate (18:1) Fold Change (cortex, AD+31/AD, p-value 0.1397): 1.39
- adrenate (22:4n6) Fold Change (cortex, AD+31/AD, p-value 0.1408): 1.56
- 1-oleoyl-2-linoleoyl-GPC (18:1/18:2)* Fold Change (cortex, AD+31/AD, p-value 0.1443): 1.12
- glutamate, gamma-methyl ester Fold Change (cortex, AD+31/AD, p-value 0.157): 0.73
- docosadienoate (22:2n6) Fold Change (cortex, AD+31/AD, p-value 0.1608): 1.38
- beta-citrylglutamate Fold Change (cortex, AD+31/AD, p-value 0.1678): 1.19
- methylphosphate Fold Change (cortex, AD+31/AD, p-value 0.1679): 1.13
- pyroglutamine* Fold Change (cortex, AD+31/AD, p-value 0.1791): 1.11
- glycerophosphoglycerol Fold Change (cortex, AD+31/AD, p-value 0.1865): 0.93
- dihomo-linoleate (20:2n6) Fold Change (cortex, AD+31/AD, p-value 0.1892): 1.35
- docosatrienoate (22:3n3) Fold Change (cortex, AD+31/AD, p-value 0.1893): 1.69
- arabinose Fold Change (cortex, AD+31/AD, p-value 0.2015): 0.93
- UDP-glucose Fold Change (cortex, AD+31/AD, p-value 0.209): 1.28
- UDP-N-acetylglucosamine/galactosamine Fold Change (cortex, AD+31/AD, p-value 0.2104): 0.95
- 1-palmitoyl-2-gamma-linolenoyl-GPC (16:0/18:3n6)* Fold Change (cortex, AD+31/AD, p-value 0.213): 0.91
- 1-arachidonylglycerol (20:4) Fold Change (cortex, AD+31/AD, p-value 0.2257): 1.2
- hippurate Fold Change (cortex, AD+31/AD, p-value 0.2339): 1.5
- mead acid (20:3n9) Fold Change (cortex, AD+31/AD, p-value 0.2367): 1.39
- 2-hydroxydecanoate Fold Change (cortex, AD+31/AD, p-value 0.2531): 0.84
- glycerol 3-phosphate Fold Change (cortex, AD+31/AD, p-value 0.2532): 0.91
- 10-nonadecenoate (19:1n9) Fold Change (cortex, AD+31/AD, p-value 0.2636): 1.26
- methionine Fold Change (cortex, AD+31/AD, p-value 0.2665): 1.1
- 1-docosahexaenoylglycerol (22:6) Fold Change (cortex, AD+31/AD, p-value 0.2822): 1.21
- 3-hydroxy-3-methylglutarate Fold Change (cortex, AD+31/AD, p-value 0.2908): 0.95
- anserine Fold Change (cortex, AD+31/AD, p-value 0.2924): 1.14
- N-formylmethionine Fold Change (cortex, AD+31/AD, p-value 0.3078): 0.94
- 3-hydroxybutyrylcarnitine (2) Fold Change (cortex, AD+31/AD, p-value 0.3124): 1.37
- acetylphosphate Fold Change (cortex, AD+31/AD, p-value 0.3359): 0.91
- 1-methylimidazoleacetate Fold Change (cortex, AD+31/AD, p-value 0.3448): 0.9
- N-acetylmethionine Fold Change (cortex, AD+31/AD, p-value 0.3576): 0.96
- arachidonoyl ethanolamide Fold Change (cortex, AD+31/AD, p-value 0.3632): 1.06
- deoxycarnitine Fold Change (cortex, AD+31/AD, p-value 0.3877): 0.94
- palmitoylcholine Fold Change (cortex, AD+31/AD, p-value 0.42): 1.09
- putrescine Fold Change (cortex, AD+31/AD, p-value 0.4207): 1.08
- adenosine 5'-diphosphoribose (ADP-ribose) Fold Change (cortex, AD+31/AD, p-value 0.4258): 0.94
- margarate (17:0) Fold Change (cortex, AD+31/AD, p-value 0.4323): 1.24
- phenol sulfate Fold Change (cortex, AD+31/AD, p-value 0.4423): 1.28
- acetylcarnitine Fold Change (cortex, AD+31/AD, p-value 0.4578): 1.25
- lactate Fold Change (cortex, AD+31/AD, p-value 0.4961): 1.08
- acetyl CoA Fold Change (cortex, AD+31/AD, p-value 0.4998): 1.33
- 3-hydroxybutyrate (BHBA) Fold Change (cortex, AD+31/AD, p-value 0.5074): 1.29
- 2-hydroxystearate Fold Change (cortex, AD+31/AD, p-value 0.5156): 1.2
- gamma-glutamylhistidine Fold Change (cortex, AD+31/AD, p-value 0.5232): 0.9
- gulonate* Fold Change (cortex, AD+31/AD, p-value 0.5547): 0.96
- 1-oleoyl-2-arachidonoyl-GPI (18:1/20:4) * Fold Change (cortex, AD+31/AD, p-value 0.5635): 1.02
- 6-phosphogluconate Fold Change (cortex, AD+31/AD, p-value 0.6142): 0.86
- adenosine 2'-monophosphate (2'-AMP) Fold Change (cortex, AD+31/AD, p-value 0.6144): 1.09
- glucosamine-6-phosphate Fold Change (cortex, AD+31/AD, p-value 0.6542): 1.06
- 1-palmitoyl-2-palmitoleoyl-GPC (16:0/16:1)* Fold Change (cortex, AD+31/AD, p-value 0.6549): 0.98
- 1-(1-enyl-stearoyl)-2-arachidonoyl-GPE (P-18:0/20:4)* Fold Change (cortex, AD+31/AD, p-value 0.6588): 1.01
- mannose Fold Change (cortex, AD+31/AD, p-value 0.6613): 0.9
- UDP-galactose Fold Change (cortex, AD+31/AD, p-value 0.6737): 1.03
- phosphoethanolamine Fold Change (cortex, AD+31/AD, p-value 0.6749): 0.98
- sphingomyelin (d18:1/18:1, d18:2/18:0) Fold Change (cortex, AD+31/AD, p-value 0.6798): 1.03
- sedoheptulose-7-phosphate Fold Change (cortex, AD+31/AD, p-value 0.7025): 0.98
- 1-stearoyl-GPC (18:0) Fold Change (cortex, AD+31/AD, p-value 0.7211): 0.94
- 1-palmitoyl-2-oleoyl-GPS (16:0/18:1) Fold Change (cortex, AD+31/AD, p-value 0.7273): 1.01
- glucose 6-phosphate Fold Change (cortex, AD+31/AD, p-value 0.7454): 0.99
- prolylglycine Fold Change (cortex, AD+31/AD, p-value 0.7821): 0.99
- glycerophosphoethanolamine Fold Change (cortex, AD+31/AD, p-value 0.7927): 1.02
- succinylcarnitine Fold Change (cortex, AD+31/AD, p-value 0.8024): 0.95
- glutamate Fold Change (cortex, AD+31/AD, p-value 0.8146): 0.99
- N-acetyl-glucosamine 1-phosphate Fold Change (cortex, AD+31/AD, p-value 0.868): 0.98
- O-methyltyrosine Fold Change (cortex, AD+31/AD, p-value 0.8778): 0.98
- galactose 1-phosphate Fold Change (cortex, AD+31/AD, p-value 0.8947): 1.05
- 17-methylstearate Fold Change (cortex, AD+31/AD, p-value 0.9061): 1
- 1-stearoyl-2-oleoyl-GPI (18:0/18:1)* Fold Change (cortex, AD+31/AD, p-value 0.9089): 1
- lysine Fold Change (cortex, AD+31/AD, p-value 0.9193): 1
- fructose-6-phosphate Fold Change (cortex, AD+31/AD, p-value 0.9322): 1.01
- coenzyme A Fold Change (cortex, AD+31/AD, p-value 0.937): 1.03
- oleoyl-oleoyl-glycerol (18:1/18:1) [2]* Fold Change (cortex, AD+31/AD, p-value 0.9411): 1

From PMC5513091, “A novel Alzheimer’s disease drug candidate targeting inflammation and fatty acid metabolism” (Alzheimer's Research & Therapy, 2017)
